# Measurements: patent publication US20060223879A1, “Non-steroidal farnesoid x receptor modulators” (priority 2002, published 2006)
# pEC50: −log10 of the molar value. Where “and” joins values, the source holds several entries; their conditions need not be identical. Identical values can stand only once. Entries after “also recorded” stand apart in the source; their conditions may differ.
# Target: T1, FXR (Homo sapiens, UniProt Q96RI1)
# T1 construct: using a full length FXR on a natural response element; expressed in transfected cells
# T1 sequence (Q96RI1 1-486): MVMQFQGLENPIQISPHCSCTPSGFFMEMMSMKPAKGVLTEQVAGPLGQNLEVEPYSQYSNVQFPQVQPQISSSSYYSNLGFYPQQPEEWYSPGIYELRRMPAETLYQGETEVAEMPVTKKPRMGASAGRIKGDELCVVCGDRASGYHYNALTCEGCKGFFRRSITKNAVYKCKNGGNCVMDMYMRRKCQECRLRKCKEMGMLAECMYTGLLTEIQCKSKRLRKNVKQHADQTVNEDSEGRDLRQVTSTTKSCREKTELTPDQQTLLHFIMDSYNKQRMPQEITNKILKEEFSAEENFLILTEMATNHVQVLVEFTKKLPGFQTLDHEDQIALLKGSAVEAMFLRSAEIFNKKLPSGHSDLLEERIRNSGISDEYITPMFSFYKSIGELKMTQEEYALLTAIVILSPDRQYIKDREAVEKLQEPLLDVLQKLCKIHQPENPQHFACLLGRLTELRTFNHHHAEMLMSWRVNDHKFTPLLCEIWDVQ
# Experiment: cell-based transcription assay, FXR responsive promoter linked to a luciferase reporter
# Parameters: RE: scale not given here
# Conditions: FXR activation, cell-based reporter assay; read-out: EC50
# Excerpt: In addition to ensuring that only cell permeable compounds were selected for further optimization, this approach allows for the detection of FXR activation in a natural system (i.e., correct folding of the protein and in the presence of a complete compliment of co-activators and co-repressors).
# The feasibility of creating high throughput screens (XIS) for ORs was explored using FXR as a candidate orphan receptor (OR) with a known activator, chenodeoxycholic acid (CDCA) as a ligand. The screen is based on the co-transfection of a full-length receptor with the reporter vector containing a natural hormone response element under a minimal eukaryotic promoter. […] Using this 384-well format, the high throughput screening (HTS) approach to FXR as a candidate OR was employed. […] A central question in the feasibility studies is whether this library is suitable for screening for nuclear receptor ligands. Samples of this library were first reformatted into a 384-well format and then subjected to the FXR cell-based assays described above and assessed for FXR-mediated transcriptional activity. Cells were exposed to approximately 10 μM of sample for 18 hrs prior to washing and luciferase analysis.
# EC50 values were determined with Prism 3.0 software via the activity of the subject compound in the previously described cell based assay.
row,Compound,pEC50
1,COC(=O)/C=C/c1cccc(N(Cc2ccc3c(c2OC)OC(C)(C)C=C3)C(=O)C2CCCCC2)c1 [Compound 65],6.45 and 6.46
2,COC(=O)/C=C/c1cccc(N(Cc2ccc3c(c2OC)OC(C)(C)C=C3)C(=O)c2ccccc2)c1 [Compound 68],6.00
3,COC(=O)/C=C/c1cccc(N(Cc2ccc3c(c2OC)OC(C)(C)C2C3C2(Cl)Cl)C(=O)c2ccccc2)c1 (centres unmarked) [Compound 102],6.48
4,COC(=O)/C=C/c1cccc(N(Cc2ccc(/C=C/C(=O)OC(C)(C)C)cc2)C(=O)C2CCCCC2)c1 [Compound 105],6.90 and 6.60 to 6.90
5,COC(=O)/C=C/c1cccc(N(C(=O)C2CCCCC2)c2ccc3ccccc3c2)c1 [Compound 111],6.17
6,COC(=O)/C=C/c1cccc(N(Cc2cc(OC)cc(OC)c2)C(=O)C2CCCCC2)c1 [Compound 118],6.22
7,COC(=O)C=Cc1cccc(N(Cc2ccc(C=Cc3ccccc3)cc2)C(=O)C2CCCCC2)c1 [Compound 121],7.44

# Same assay, conditions: Tables 1-15; FXR activation, cell-based reporter assay; read-out: EC50
row,Compound,pEC50
1,COC(=O)/C=C/c1cccc(N(Cc2ccc3c(c2OC)OC(C)(C)C=C3)C(=O)c2ccccc2)c1 [Compound 68],< 6.00
2,COC(=O)C=Cc1cccc(N(Cc2ccc(C=CC(=O)O)cc2)C(=O)C2CCCCC2)c1 [Compound 104],< 6.00
3,COC(=O)/C=C/c1cccc(N(Cc2ccccc2)C(=O)C2CCCCC2)c1 [Compound 110],< 6.00
4,COC(=O)/C=C/c1cccc(N(Cc2ccc(Br)cc2)C(=O)C2CCCCC2)c1 [Compound 112],< 6.00
5,COC(=O)/C=C/c1cccc(N(Cc2cccc(Br)c2)C(=O)C2CCCCC2)c1 [Compound 113],< 6.00
6,COC(=O)/C=C/c1cccc(N(Cc2ccccc2Br)C(=O)C2CCCCC2)c1 [Compound 114],< 6.00
7,COC(=O)/C=C/c1cccc(N(Cc2cccc(OC)c2)C(=O)C2CCCCC2)c1 [Compound 115],< 6.00
8,COC(=O)/C=C/c1cccc(N(Cc2cccc(C(F)(F)F)c2)C(=O)C2CCCCC2)c1 [Compound 117],< 6.00

# Same assay, conditions: Tables 1-15; RE not defined in the source
row,Compound,RE
1,COC(=O)/C=C/c1cccc(N(Cc2ccc3c(c2OC)OC(C)(C)C=C3)C(=O)C2CCCCC2)c1 [Compound 65],0.40
2,COC(=O)/C=C/c1cccc(N(Cc2ccc3c(c2OC)OC(C)(C)C=C3)C(=O)c2ccccc2)c1 [Compound 68],0.83
3,COC(=O)/C=C/c1cccc(N(Cc2ccc3c(c2OC)OC(C)(C)C2C3C2(Cl)Cl)C(=O)c2ccccc2)c1 (centres unmarked) [Compound 102],0.64
4,COC(=O)C=Cc1cccc(N(Cc2ccc(C=CC(=O)O)cc2)C(=O)C2CCCCC2)c1 [Compound 104],0.08
5,COC(=O)/C=C/c1cccc(N(Cc2ccc(/C=C/C(=O)OC(C)(C)C)cc2)C(=O)C2CCCCC2)c1 [Compound 105],2.12
6,COC(=O)/C=C/c1cccc(N(Cc2ccccc2)C(=O)C2CCCCC2)c1 [Compound 110],0.09
7,COC(=O)/C=C/c1cccc(N(C(=O)C2CCCCC2)c2ccc3ccccc3c2)c1 [Compound 111],0.41
8,COC(=O)/C=C/c1cccc(N(Cc2ccc(Br)cc2)C(=O)C2CCCCC2)c1 [Compound 112],0.28
9,COC(=O)/C=C/c1cccc(N(Cc2cccc(Br)c2)C(=O)C2CCCCC2)c1 [Compound 113],0.10
10,COC(=O)/C=C/c1cccc(N(Cc2ccccc2Br)C(=O)C2CCCCC2)c1 [Compound 114],0.11
11,COC(=O)/C=C/c1cccc(N(Cc2cccc(OC)c2)C(=O)C2CCCCC2)c1 [Compound 115],0.11
12,COC(=O)/C=C/c1cccc(N(Cc2cc(OC)cc(OC)c2)C(=O)C2CCCCC2)c1 [Compound 116],0.11
13,COC(=O)/C=C/c1cccc(N(Cc2cccc(C(F)(F)F)c2)C(=O)C2CCCCC2)c1 [Compound 117],0.12
14,COC(=O)C=Cc1cccc(N(Cc2ccc(C=Cc3ccccc3)cc2)C(=O)C2CCCCC2)c1 [Compound 121],1.55

# Same assay, conditions: cell-based reporter assay
row,Compound,FXR activation (in words)
1,COC(=O)/C=C/c1cccc(N(Cc2ccc3c(c2OC)OC(C)(C)[C@@H](OC(C)=O)[C@H]3OC(C)=O)C(=O)c2ccccc2)c1 (relative stereo) [Compound 95],"Nor did the addition of H-bond acceptors such as in 89, 90, 95, 99 and 101 improve the ability of the parent compound 68 to activate FXR"
2,COc1c(CN(C(=O)C2CC2)c2ccccc2)ccc2c1OC(C)(C)C=C2 [Compound 26],among the most active at this stage
3,COc1c(CN(C(=O)C2CCCCC2)c2ccccc2)ccc2c1OC(C)(C)C=C2 [Compound 27],among the most active at this stage
4,COC(=O)/C=C/c1cccc(N(Cc2ccc3c(c2OC)OC(C)(C)C=C3)C(=O)C2CC2)c1 [Compound 29],substantially better activator of FXR than compound 26; also recorded: capable of activating FXR to a significant extent
5,CCOC(=O)/C=C/c1cccc(N(Cc2ccc3c(c2OC)OC(C)(C)C=C3)C(=O)C2CC2)c1 [Compound 30],inactive
6,COC/C=C/c1cccc(N(Cc2ccc3c(c2OC)OC(C)(C)C=C3)C(=O)C2CC2)c1 [Compound 33],capable of activating FXR to a significant extent
7,COc1c(CN(C(=O)C2CC2)c2cccc(/C=C/C#N)c2)ccc2c1OC(C)(C)C=C2 [Compound 34],inactive
8,CNC(=O)/C=C/c1cccc(N(Cc2ccc3c(c2OC)OC(C)(C)C=C3)C(=O)C2CC2)c1 [Compound 38],inactive
9,COC(=O)/C=C/c1ccc(N(Cc2ccc3c(c2OC)OC(C)(C)C=C3)C(=O)C2CC2)cc1 [Compound 53],does not activate FXR under the conditions tested
10,COC(=O)/C=C/c1cccc(N(Cc2ccccc2)Cc2ccc3c(c2OC)OC(C)(C)C=C3)c1 [Compound 78],inactive
11,COC(=O)/C=C/c1cccc(N(C)Cc2ccc3c(c2OC)OC(C)(C)C=C3)c1 [Compound 79],inactive
12,COC(=O)/C=C/c1cccc(N(Cc2ccc3c(c2OC)OC(C)(C)C=C3)S(=O)(=O)c2ccc(C)cc2)c1 [Compound 82],inactive
13,COC(=O)/C=C/c1cccc(N(Cc2ccc3c(c2OC)OC(C)(C)C=C3)C(=S)C2CC2)c1 [Compound 83],inactive
14,COC(=O)/C=C/c1cccc(N(Cc2ccc3c(c2OC)OC(C)(C)C=C3)C(=S)NCc2ccccc2)c1 [Compound 84],inactive
15,COC(=O)/C=C/c1cccc(N(Cc2ccc3c(c2OC)OC(C)(C)C=C3C(=O)O)C(=O)c2ccccc2)c1 [Compound 86],did not improve the activity
16,COC(=O)/C=C/c1cccc(N(Cc2ccc3c(c2OC)OC(C)(C)CC3=O)C(=O)c2ccccc2)c1 [Compound 89],"Nor did the addition of H-bond acceptors such as in 89, 90, 95, 99 and 101 improve the ability of the parent compound 68 to activate FXR"
17,COC(=O)/C=C/c1cccc(N(Cc2ccc3c(c2OC)OC(C)(C)C(C)C3=O)C(=O)c2ccccc2)c1 (centres unmarked) [Compound 90],"Nor did the addition of H-bond acceptors such as in 89, 90, 95, 99 and 101 improve the ability of the parent compound 68 to activate FXR"
18,COC(=O)/C=C/c1cccc(N(Cc2ccc3c(c2OC)OC(C)(C)[C@@H](O)[C@H]3O)C(=O)c2ccccc2)c1 [Compound 93],did not improve the activity
19,COC(=O)C=Cc1cccc(N(Cc2ccc3c(c2OC)OC(C)(C)C(O)C3O)C(=O)c2ccccc2)c1 (centres unmarked) [Compound 94],did not improve the activity
20,COC(=O)C=Cc1cccc(N(Cc2ccc3c(c2OC)OC(C)(C)C(O)C3Sc2ccccc2)C(=O)c2ccccc2)c1 (centres unmarked) [Compound 98],did not improve the activity
21,COC(=O)C=Cc1cccc(N(Cc2ccc3c(c2OC)OC(C)(C)C(OC(C)=O)C3Sc2ccccc2)C(=O)c2ccccc2)c1 (centres unmarked) [Compound 99],"Nor did the addition of H-bond acceptors such as in 89, 90, 95, 99 and 101 improve the ability of the parent compound 68 to activate FXR"
22,COC(=O)C=Cc1cccc(N(Cc2ccc3c(c2OC)OC(C)(C)C(O)C3N2CCCCC2)C(=O)c2ccccc2)c1 (centres unmarked) [Compound 100],did not improve the activity
23,COC(=O)C=Cc1cccc(N(Cc2ccc3c(c2OC)OC(C)(C)C(OC(C)=O)C3N2CCCCC2)C(=O)c2ccccc2)c1 (centres unmarked) [Compound 101],"Nor did the addition of H-bond acceptors such as in 89, 90, 95, 99 and 101 improve the ability of the parent compound 68 to activate FXR"
24,COC(=O)/C=C/c1cccc(N(Cc2cccc(/C=C/C(=O)OC(C)(C)C)c2)C(=O)C2CCCCC2)c1 [Compound 107],only micromolar potency
25,COC(=O)/C=C/c1cccc(N(Cc2ccccc2/C=C/C(=O)OC(C)(C)C)C(=O)C2CCCCC2)c1 [Compound 109],only micromolar potency
26,COC(=O)/C=C/c1cccc(N(Cc2ccccc2)C(=O)C2CCCCC2)c1 [Compound 110],inactive
27,COC(=O)C=Cc1cccc(N(Cc2ccc(C=Cc3ccccc3)cc2)C(=O)C2CCCCC2)c1 [Compound 121],excellent activity; also recorded: among the most active

# Same assay, conditions: library screening hits and leads; read-out: activity (EC50)
row,Compound,pEC50
1,COc1cc(CN(CC(C)C)C(=O)C2CCCCC2)cc2c1OC(C)(C)C=C2 [Compound 16],5.00 to 5.30
2,COc1c(CN(C(=O)c2ccccc2C(=O)O)c2ccncc2)ccc2c1OC(C)(C)C=C2 [Compound 17],5.00 to 5.30
3,COc1cc(CN(Cc2ccccc2)C(=O)NC2CCCC2)cc2c1OC(C)(C)C=C2 [Compound 18],5.00 to 5.30
4,COc1c(CN(C(=O)C2CCCCC2)C(C)C)ccc2c1OC(C)(C)C=C2 [Compound 19],5.00 to 5.30
5,COc1cc(CN(CC(C)C)C(=O)c2ccccc2)cc2c1OC(C)(C)C=C2 [Compound 20],5.00 to 5.30
6,COc1c(CN(C(=O)CC(C)C)C(C)C)ccc2c1OC(C)(C)C=C2 [Compound 21],5.00 to 5.30
7,COc1c(CN(C(=O)c2ccccc2C(=O)O)c2ccccc2)ccc2c1OC(C)(C)C=C2 [Compound 22],5.00 to 5.30
8,COc1c(CN(Cc2ccccc2)C(=O)C2CC2)ccc2c1OC(C)(C)C=C2 [Compound 23],5.00 to 5.30
9,COc1cc(CN(C(=O)CC(C)C)c2ccccc2)cc2c1OC(C)(C)C=C2 [Compound 24],5.00 to 5.30
10,COc1cc(CN(C(=O)Nc2ccccc2)c2ccccc2)cc2c1OC(C)(C)C=C2 [Compound 25],5.00 to 5.30
11,COc1c(CN(C(=O)C2CC2)c2ccccc2)ccc2c1OC(C)(C)C=C2 [Compound 26],5.00 to 5.30
12,COc1c(CN(C(=O)C2CCCCC2)c2ccccc2)ccc2c1OC(C)(C)C=C2 [Compound 27],5.00 to 5.30
